Test results as given in PubChem BioAssay AID1963962 (Molecular Pharmacology Branch, DTP, NCI, 2024).

System: 967376-340-R-J2-PDC multicell spheroid viability
Assay: Anticancer human tumor 967376-340-R-J2-PDC patient-derived colon adenocarcinoma cell line growth inhibition [PI3K]
Details: for IC50: curve of first compound; for viability, T/C: stronger effect = lower value
Description: Combinatorial screen of targeted agents with the PI3K inhibitors inavolisib, alpelisib, duvelisib, and copanlisib in multi-cell type tumor spheroids
A high-throughput screen of multi-cell type tumor spheroids was designed to identify active combinations of targeted small molecules and PI3K pathway inhibitors. Complex spheroids include a stromal component modeled by human endothelial cells (HUVEC) and fibroblasts modeled by human mesenchymal stem cells (MSCs). The concentration ranges selected for each drug and investigational agent were based upon clinically achievable concentrations if the clinical Cmax of the agent was known.
Compounds. The drugs and investigational agents: inavolisib (NSC800729), alpelisib (NSC765974), duvelisib (NSC772469), copanlisib (NSC816437), ipatasertib (NSC767898), afuresertib (NSC778305), talazoparib (NSC767125), sapanisertib (NSC764658), selumetinib (NSC741078), tovorafenib (DAY101, NSC766906), vemurafenib (NSC761431), ravoxertinib (NSC781343), sotorasib (NSC818433), MRTX1133 (NSC 836407), abemaciclib (NSC 768073), palbociclib (NSC758247), venetoclax (NSC 766270), SY5609 (NSC837396), enzalutamide (NSC755605), and darolutamide (NSC825331), were obtained from the National Cancer Institute (NCI) Developmental Therapeutics Program Chemical Repository. The FDA-approved anticancer drug set is available from the NCI Developmental Therapeutics Program. […] The stock solutions were prepared in dimethyl sulfoxide (DMSO, Sigma-Aldrich, St. Louis, MO, cat. D2650) at 800-fold the tested concentration and stored at -70 degrees C prior to their use. All drugs and investigational agents were tested over a range starting from a high concentration at or near the clinical Cmax and decreasing in half-log increments. If the clinical Cmax for an agent had not been determined, the highest concentration tested was 10 microM.
Cell Culture. All cells were maintained in an incubator at 37 degrees C and 5% CO2 with 95% humidity. The PDC lines were cultured according to standard operating procedures established by the NCI PDMR (https://pdmr.cancer.gov/sops/default.htm). All PDCs were thawed and cultured in Matrigel-coated flasks prepared with a working solution of 1X Ham's F-12 nutrient mix, without supplementation (Invitrogen, Waltham, MA, cat. 11765054), 100 U/mL penicillin-streptomycin (Invitrogen, cat. 15140122), and 2.5% Matrigel (Corning Inc., Corning, NY, cat. 354248) for the first three passages. The 354836-022-R-J1-PDC, 475296-252-R-J1-PDC, and 997726-040-R-J2-PDC lines were cultured in 6A media, which includes advanced DMEM/F-12 (Thermo Fisher Scientific, cat. 12634028), 10 mM HEPES (Thermo Fisher Scientific, cat. 15630080), 1X GlutaMAX supplement (Thermo Fisher Scientific, cat. 35050061), 0.1 mg/mL primocin (InvivoGen, San Diego, CA, cat. ant-pm-2), 10% defined fetal bovine serum, heat inactivated (HyClone Laboratories Inc., Logan, UT, cat. SH30070.03HI), 50% L-WRN conditioned media (ATCC, cat. CRL-3276), 1.25 mM N-Acetyl-L-cysteine (Sigma-Aldrich, cat. A9165), 10 mM nicotinamide (Sigma-Aldrich, cat. N0636), 1X B-27 supplement (Thermo Fisher Scientific, cat. 17504044), 1X N-2 supplement (Thermo Fisher Scientific, cat. 17502048), and 10 microM Y-27632 dihydrochloride (Tocris Bioscience, Bristol, United Kingdom, cat. 1254). The 624824-186-R-J2-PDC line was cultured in 6C/Colon 1B media, which includes all 6A media components plus 50 ng/mL human EGF recombinant protein (Thermo Fisher Scientific, cat. PHG0311). […]

[1] = second compound 0.00316 µM, first compound 0.0316 µM
[2] = second compound 0.00316 µM, first compound 0.1 µM
[3] = second compound 0.01 µM, first compound 0.0316 µM
[4] = second compound 0.01 µM, first compound 0.1 µM
[5] = second compound 0.0316 µM, first compound 0.0316 µM
[6] = second compound 0.0316 µM, first compound 0.1 µM
[7] = second compound 0.1 µM, first compound 0.0316 µM
[8] = second compound 0.1 µM, first compound 0.1 µM
[9] = second compound 0.316 µM, first compound 0.0316 µM
[10] = second compound 0.316 µM, first compound 0.1 µM
[11] = second compound 1 µM, first compound 0.0316 µM
[12] = second compound 1 µM, first compound 0.1 µM
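Further: spheroids exposed to agents for 7 days before read-out.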
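Wherever viability, T/C is given: luminescence used as surrogate of cell viability.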

Work on CC(=O)c1c(C)c2cnc(Nc3ccc(N4CCNCC4)cn3)nc2n(C2CCCC2)c1=O + CC(Nc1ccc2c(c1)OCCn1cc(N3C(=O)OCC3C(F)F)nc1-2)C(N)=O yielded an IC50 (second compound 0.00316 µM) greater than 0.1 µM, an IC50 (second compound 0.01 µM) greater than 0.1 µM and an IC50 (second compound 0.0316 µM) greater than 0.1 µM. For the same compound, the IC50 (second compound 0.1 µM) was greater than 0.1 µM, the IC50 (second compound 0.316 µM) was greater than 0.1 µM and the IC50 (second compound 1 µM) was greater than 0.1 µM. For the same compound, the viability, T/C (second compound 0.00316 µM, first compound 0.000316 µM) was 111%, the viability, T/C (second compound 0.00316 µM, first compound 0.001 µM) was 79.3% and the viability, T/C (second compound 0.00316 µM, first compound 0.00316 µM) was 93.8%. For the same compound, the viability, T/C (second compound 0.00316 µM, first compound 0.01 µM) was 102%, the viability, T/C [1] was 114% and the viability, T/C [2] was 87.4%. For the same compound, the viability, T/C (second compound 0.01 µM, first compound 0.000316 µM) was 100%, the viability, T/C (second compound 0.01 µM, first compound 0.001 µM) was 101% and the viability, T/C (second compound 0.01 µM, first compound 0.00316 µM) was 96.4%. It also gave a viability, T/C (second compound 0.01 µM, first compound 0.01 µM) of 93%, a viability, T/C [3] of 94.7% and a viability, T/C [4] of 75.8%. It also gave a viability, T/C (second compound 0.0316 µM, first compound 0.000316 µM) of 92.7%, a viability, T/C (second compound 0.0316 µM, first compound 0.001 µM) of 88.4% and a viability, T/C (second compound 0.0316 µM, first compound 0.00316 µM) of 70.7%. The viability, T/C (second compound 0.0316 µM, first compound 0.01 µM) was 117%, the viability, T/C [5] was 91.3% and the viability, T/C [6] was 84.7%. The viability, T/C (second compound 0.1 µM, first compound 0.000316 µM) was 87.9%, the viability, T/C (second compound 0.1 µM, first compound 0.001 µM) was 78.8% and the viability, T/C (second compound 0.1 µM, first compound 0.00316 µM) was 96.3%. The viability, T/C (second compound 0.1 µM, first compound 0.01 µM) was 64.3%, the viability, T/C [7] was 90.2% and the viability, T/C [8] was 79.7%. For the same compound, the viability, T/C (second compound 0.316 µM, first compound 0.000316 µM) was 64.3%, the viability, T/C (second compound 0.316 µM, first compound 0.001 µM) was 74.7% and the viability, T/C (second compound 0.316 µM, first compound 0.00316 µM) was 72.8%. For the same compound, the viability, T/C (second compound 0.316 µM, first compound 0.01 µM) was 72.1%, the viability, T/C [9] was 72.9% and the viability, T/C [10] was 67.8%. It also gave a viability, T/C (second compound 1 µM, first compound 0.000316 µM) of 65%, a viability, T/C (second compound 1 µM, first compound 0.001 µM) of 64.2% and a viability, T/C (second compound 1 µM, first compound 0.00316 µM) of 77.8%. It also gave a viability, T/C (second compound 1 µM, first compound 0.01 µM) of 55.7%, a viability, T/C [11] of 61.6% and a viability, T/C [12] of 50.9%.

Work on CCCS(=O)(=O)Nc1ccc(F)c(C(=O)c2c[nH]c3ncc(-c4ccc(Cl)cc4)cc23)c1F + CC(Nc1ccc2c(c1)OCCn1cc(N3C(=O)OCC3C(F)F)nc1-2)C(N)=O yielded an IC50 (second compound 0.00316 µM) greater than 10 µM, an IC50 (second compound 0.01 µM) of 9.81 µM and an IC50 (second compound 0.0316 µM) greater than 10 µM. The IC50 (second compound 0.1 µM) was 8.12 µM, the IC50 (second compound 0.316 µM) was greater than 10 µM and the IC50 (second compound 1 µM) was 3.83 µM. It also gave a viability, T/C [1] of 87.1%, a viability, T/C [2] of 77.7% and a viability, T/C (second compound 0.00316 µM, first compound 0.316 µM) of 98.3%. The viability, T/C (second compound 0.00316 µM, first compound 1 µM) was 60.2%, the viability, T/C (second compound 0.00316 µM, first compound 3.16 µM) was 81.4% and the viability, T/C (second compound 0.00316 µM, first compound 10 µM) was 53.4%. For the same compound, the viability, T/C [3] was 95.5%, the viability, T/C [4] was 86.5% and the viability, T/C (second compound 0.01 µM, first compound 0.316 µM) was 88.7%. For the same compound, the viability, T/C (second compound 0.01 µM, first compound 1 µM) was 70.3%, the viability, T/C (second compound 0.01 µM, first compound 3.16 µM) was 89.4% and the viability, T/C (second compound 0.01 µM, first compound 10 µM) was 49.6%. It also gave a viability, T/C [5] of 72%, a viability, T/C [6] of 79.6% and a viability, T/C (second compound 0.0316 µM, first compound 0.316 µM) of 65.2%. It also gave a viability, T/C (second compound 0.0316 µM, first compound 1 µM) of 93.3%, a viability, T/C (second compound 0.0316 µM, first compound 3.16 µM) of 91.9% and a viability, T/C (second compound 0.0316 µM, first compound 10 µM) of 67.8%. For the same compound, the viability, T/C [7] was 69.9%, the viability, T/C [8] was 73.8% and the viability, T/C (second compound 0.1 µM, first compound 0.316 µM) was 80.3%. For the same compound, the viability, T/C (second compound 0.1 µM, first compound 1 µM) was 77.9%, the viability, T/C (second compound 0.1 µM, first compound 3.16 µM) was 81.5% and the viability, T/C (second compound 0.1 µM, first compound 10 µM) was 44.1%. It also gave a viability, T/C [9] of 64.5%, a viability, T/C [10] of 61.3% and a viability, T/C (second compound 0.316 µM, first compound 0.316 µM) of 73.8%. It also gave a viability, T/C (second compound 0.316 µM, first compound 1 µM) of 76.2%, a viability, T/C (second compound 0.316 µM, first compound 3.16 µM) of 75.2% and a viability, T/C (second compound 0.316 µM, first compound 10 µM) of 37.6%. It also gave a viability, T/C [11] of 61.5%, a viability, T/C [12] of 55.5% and a viability, T/C (second compound 1 µM, first compound 0.316 µM) of 58.9%. The viability, T/C (second compound 1 µM, first compound 1 µM) was 56%, the viability, T/C (second compound 1 µM, first compound 3.16 µM) was 52.6% and the viability, T/C (second compound 1 µM, first compound 10 µM) was 39.5%.
